molecular target: T1, rhCRTh2 (Homo sapiens, UniProt Q9Y5Y4); assay: Ligand binding assay ([3H]PGD2 SPA, HEK cell membranes); details: [3H]PGD2 displacement, membranes of HEK cells expressing rhCRTh2/Gα16, SPA beads, 2 hours room temperature; read-out: pIC50 value (converted)
T1 construct: expressed in transfected cells; host or cells: HEK cells (membrane preparation)
T1 sequence (Q9Y5Y4 1-395): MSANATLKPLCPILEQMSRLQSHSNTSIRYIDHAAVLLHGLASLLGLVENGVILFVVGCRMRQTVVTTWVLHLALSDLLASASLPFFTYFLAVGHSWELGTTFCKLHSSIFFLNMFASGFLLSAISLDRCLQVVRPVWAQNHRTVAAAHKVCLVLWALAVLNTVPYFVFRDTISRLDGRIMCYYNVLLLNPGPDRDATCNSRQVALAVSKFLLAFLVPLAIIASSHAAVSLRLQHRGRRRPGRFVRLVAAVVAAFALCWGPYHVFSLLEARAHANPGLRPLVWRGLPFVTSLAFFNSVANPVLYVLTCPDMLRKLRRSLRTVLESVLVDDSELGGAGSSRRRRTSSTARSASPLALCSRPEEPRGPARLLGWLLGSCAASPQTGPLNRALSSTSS
Method: [^3H]PGD2 was purchased from Perkin Elmer Life Sciences with a specific activity of 100-210 Ci/mmol. All other chemicals were of analytical grade.
HEK cells expressing rhCRTh2/Gα16 were routinely maintained in DMEM containing 10% Foetal Bovine Serum (HyClone), 1 mg/ml geneticin, 2 mM L-glutamine and 1% non-essential amino acids. For the preparation of membranes, the adherent transfected HEKcells were grown to confluence in two layer tissue culture factories (Fisher, catalogue number TKT-170-070E). Maximal levels of receptor expression were induced by addition of […] sodium butyrate for the last 18 hours of culture. The adherent cells were washed once with phosphate buffered saline (PBS, 50 ml per cell factory) and detached by the addition of 50 ml per cell factory of ice-cold membrane homogenisation buffer [20 mM HEPES (pH 7.4), 0.1 mM dithiothreitol, 1 mM EDTA, 0.1 mM phenyl methyl sulphonyl fluoride and 100 μg/ml bacitracin]. […] The final pellet was re-suspended in 4 ml of membrane homogenisation buffer per cell factory used and the protein content determined. […]
All assays were performed in Corning clear bottomed, white 96-well NBS plates (Fisher). […] (The optimum coating concentrations were determined for each batch of membranes) The beads were pelleted by centrifugation (800×g for 7 minutes at 4° C.), washed once with assay buffer (50 mM HEPES pH 7.4 containing 5 mM magnesium chloride) and finally re-suspended in assay buffer at a bead concentration of 10 mg/ml.
Each assay contained 20 μl of 6.25 nM [^3H]PGD2, 20 μl membrane saturated SPA beads both in assay buffer and 10 μl of compound solution or 13,14-dihydro-15-keto prostaglandin D2 (DK-PGD2, for determination of non-specific binding, Cayman chemical company). […] The assay plate was incubated at room temperature for 2 hours and counted on a Wallac Microbeta liquid scintillation counter (1 minute per well).

Question: With O=C(O)COc1ccc(F)cc1-c1ccc(S(=O)(=O)c2ccccc2)c(C(F)(F)F)c1 [Example 7, {[5-fluoro-4′-(phenylsulfonyl)-3′-(trifluoromethyl)biphenyl-2-yl]oxy}acetic acid] as the molecule, how does the IC50 read?
Answer: The IC50 was 3.16 nM.

Question: For C[C@H](Oc1ccc(Cl)cc1-c1ccc(S(=O)(=O)c2ccc(F)cc2)cc1)C(=O)O [Example 8, (2S)-2-({5-chloro-4′-[(4-fluorophenyl)sulfonyl]biphenyl-2-yl}oxy)propanoic acid], which IC50 is on record?
Answer: The IC50 was 1.58 nM.

Question: With C[C@H](Oc1ccc(F)cc1-c1ccc(S(=O)(=O)c2ccccc2)cc1Cl)C(=O)O [Example 15, (2S)-2-{[2′-chloro-5-fluoro-4′-(phenylsulfonyl)biphenyl-2-yl]oxy}propanoic acid] as the molecule, how does the IC50 read?
Answer: The IC50 was 1.58 nM.

— US8349897B2, “Biphenyloxyacetic acid derivatives for the treatment of respiratory disease” (Astrazeneca AB, priority 2005, dated 2013)
